Measured values: patent US20080318792A1, “Extension of pollination period” (priority 2007, published 2008)

Experiments:
Type in all cases: in vivo
[1] = tested on: commercial inbred sorghum lines; test: Soil emergence of sorghum inbreds after ABA seed treatment; details: for Emergence / Median time to emergence / Quartile range: soil 20/30° C.
Description: Seed of four commercial inbred sorghum lines were obtained from a genetics supplier. These inbreds are representative of many male parents used in hybrid sorghum seed production. ABA in the form of the free acid was applied at rates of 0, 10, 25, 50 and 100 g/cwt. Application was performed as described under Example 2 above, except the Maxim XL (Syngenta) was applied at 0.334 oz/cwt, Allegiance FL (Bayer), was applied at 0.75 oz/cwt, and Thiram 42-S (Bayer) was applied at 3.5 oz/cwt, using a slurry rate of 25 oz/cwt. The seed was planted in soil in plastic boxes as described under Example 2, except at a depth of 2 cm., and incubated at 20/30° C. (AOSA Rules for Testing Seeds, 2005). Emergence was counted every 1-3 days and the data reduced as described under Example 2.

[2] = tested on: sweet corn seed (cv. Silver Queen); test: Germination of sweet corn seed on moist blotters at 15° C. after seed treatment; details: blotters 15° C.; for Coleoptile protrusion CGERM / Radicle protrusion RGERM: maximum by day 27
Description: ABA acid and three analogs were dissolved in ethanol to produce the desired doses. […] Aliquotes (250 μl) of ethanol solutions of the agents were added to 10 g samples of the seed and the seeds were agitated and dried overnight. Germination tests were conducted on moist blotters at 15° C. in petri dishes. Four replications of 10 seeds each were performed.
Radicle and coleoptile protrusion were counted approximately daily for 27 days. The maximum radical protrusion (RGERM) and maximum coleoptile protrusion (CGERM) were expressed as percentages from each dish. The daily counts were expressed as proportions of the protrusion maxima from each dish, and Gompertz curves were fitted to the protrusion data using SAS Proc NLIN. From the parameters of the models, median time to radicle protrusion (RT50), and median-time-to-coleoptile protrusion (CT50) were estimated for each dish. Analysis of variance was performed and means calculated for each of the four responses (RGERM, CGERM, RT50 and CT50).

[3] = tested on: corn inbred lines B91 and B95; test: Field emergence and anthesis of inbred corn seed treated with ABA
Description: Seed of inbred lines B91 and B95 was obtained from Iowa State University. These inbreds are from the BSCB1 heterotic group, and are representative of many male parents used in hybrid corn seed production. ABA in the form of the ammonium salt was applied at rates of 0, 25, 50 and 100 g/cwt (as free acid). Application was performed as described under Example 2 above, except the CF-Clear and Color Coat Red (Becker Underwood) were applied at 0.5 oz/cwt, and Maxim XL (Syngenta) was applied at 0.334 oz/cwt, using a slurry rate of 15 oz/cwt. The seed samples were mechanically planted in small plots of one five hundredth acre each at Woodstock, Ill., Stoughton, Wis. and Winnebago, Ill. Three plots of each treatment were planted at each location. Standard cultural practices for corn production were used. The plots were examined daily, and seedling emergence counted in each plot every day or two during the month after planting. Data were analyzed as described under Example 2 above.

[4] = sorghum inbred 43, ABA 10 g/cwt
[5] = sorghum inbred 43, ABA 25 g/cwt
[6] = sorghum inbred 43, ABA 50 g/cwt
[7] = sorghum inbred 43, ABA 100 g/cwt
[8] = sorghum inbred 44, ABA 10 g/cwt
[9] = sorghum inbred 44, ABA 25 g/cwt
[10] = sorghum inbred 44, ABA 50 g/cwt
[11] = sorghum inbred 44, ABA 100 g/cwt
[12] = sorghum inbred 45, ABA 10 g/cwt
[13] = sorghum inbred 45, ABA 25 g/cwt
[14] = sorghum inbred 45, ABA 50 g/cwt
[15] = sorghum inbred 45, ABA 100 g/cwt
[16] = sorghum inbred 46, ABA 10 g/cwt
[17] = sorghum inbred 46, ABA 25 g/cwt
[18] = sorghum inbred 46, ABA 50 g/cwt
[19] = sorghum inbred 46, ABA 100 g/cwt
[20] = Stoughton, inbred B91, ABA (ammonium salt) 25 g/cwt as free acid
[21] = Stoughton, inbred B91, ABA (ammonium salt) 50 g/cwt as free acid
[22] = Stoughton, inbred B91, ABA (ammonium salt) 100 g/cwt as free acid
[23] = Stoughton, inbred B95, ABA (ammonium salt) 25 g/cwt as free acid
[24] = Stoughton, inbred B95, ABA (ammonium salt) 50 g/cwt as free acid
[25] = Stoughton, inbred B95, ABA (ammonium salt) 100 g/cwt as free acid
[26] = Winnebago, inbred B91, ABA (ammonium salt) 25 g/cwt as free acid
[27] = Winnebago, inbred B91, ABA (ammonium salt) 50 g/cwt as free acid
[28] = Winnebago, inbred B91, ABA (ammonium salt) 100 g/cwt as free acid
[29] = Winnebago, inbred B95, ABA (ammonium salt) 25 g/cwt as free acid
[30] = Winnebago, inbred B95, ABA (ammonium salt) 50 g/cwt as free acid
[31] = Winnebago, inbred B95, ABA (ammonium salt) 100 g/cwt as free acid
[32] = Woodstock, inbred B91, ABA (ammonium salt) 25 g/cwt as free acid
[33] = Woodstock, inbred B91, ABA (ammonium salt) 50 g/cwt as free acid
[34] = Woodstock, inbred B91, ABA (ammonium salt) 100 g/cwt as free acid
[35] = Woodstock, inbred B95, ABA (ammonium salt) 25 g/cwt as free acid
[36] = Woodstock, inbred B95, ABA (ammonium salt) 50 g/cwt as free acid
[37] = Woodstock, inbred B95, ABA (ammonium salt) 100 g/cwt as free acid

CC1=CC(=O)CC(C)(C)[C@@]1(O)/C=C/C(C)=C\C(=O)O [ABA, S-(+)-abscisic acid]
effect on emergence of sorghum inbreds ([1]; ABA 10-100 g/cwt): progressively and significantly delayed emergence
Emergence [1, 4]: 94.0%
Median time to emergence [1, 4]: 5.1 days
Quartile range [1, 4]: 1.5 days
Emergence [1, 5]: 94.2%
Median time to emergence [1, 5]: 6.3 days
Quartile range [1, 5]: 2.2 days
Emergence [1, 6]: 87.2%
Median time to emergence [1, 6]: 8.6 days
Quartile range [1, 6]: 3.7 days
Emergence [1, 7]: 87.9%
Median time to emergence [1, 7]: 11.3 days
Quartile range [1, 7]: 4.8 days
Emergence [1, 8]: 79.0%
Median time to emergence [1, 8]: 5.7 days
Quartile range [1, 8]: 2.6 days
Emergence [1, 9]: 73.2%
Median time to emergence [1, 9]: 8.4 days
Quartile range [1, 9]: 3.2 days
Emergence [1, 10]: 71.3%
Median time to emergence [1, 10]: 10.7 days
Quartile range [1, 10]: 4.6 days
Emergence [1, 11]: 49.0%
Median time to emergence [1, 11]: 14.4 days
Quartile range [1, 11]: 4.7 days
Emergence [1, 12]: 81.3%
Median time to emergence [1, 12]: 5.4 days
Quartile range [1, 12]: 1.5 days
Emergence [1, 13]: 77.1%
Median time to emergence [1, 13]: 7.3 days
Quartile range [1, 13]: 3.1 days
Emergence [1, 14]: 54.1%
Median time to emergence [1, 14]: 10.6 days
Quartile range [1, 14]: 3.5 days
Emergence [1, 15]: 25.0%
Median time to emergence [1, 15]: 14.9 days
Quartile range [1, 15]: 6.7 days
Emergence [1, 16]: 89.2%
Median time to emergence [1, 16]: 5.7 days
Quartile range [1, 16]: 2.6 days
Emergence [1, 17]: 86.1%
Median time to emergence [1, 17]: 7.0 days
Quartile range [1, 17]: 3.0 days
Emergence [1, 18]: 86.2%
Median time to emergence [1, 18]: 8.8 days
Quartile range [1, 18]: 3.9 days
Emergence [1, 19]: 75.1%
Median time to emergence [1, 19]: 11.4 days
Quartile range [1, 19]: 5.0 days
Coleoptile protrusion CT50 ([2]; dose 10 ppm): 9.70 days
Radicle protrusion RT50 ([2]; dose 10 ppm): 5.99 days
Coleoptile protrusion CGERM ([2]; dose 10 ppm): 80.0%
Radicle protrusion RGERM ([2]; dose 10 ppm): 87.5%
Coleoptile protrusion CT50 ([2]; dose 100 ppm): 12.80 days
Radicle protrusion RT50 ([2]; dose 100 ppm): 7.28 days
Coleoptile protrusion CGERM ([2]; dose 100 ppm): 65.0%
Radicle protrusion RGERM ([2]; dose 100 ppm): 77.5%
Coleoptile protrusion CT50 ([2]; dose 1000 ppm): 18.44 days
Radicle protrusion RT50 ([2]; dose 1000 ppm): 8.58 days
Coleoptile protrusion CGERM ([2]; dose 1000 ppm): 22.5%
Radicle protrusion RGERM ([2]; dose 1000 ppm): 85.0%
effect on anthesis ([3]; Stoughton and Winnebago, ABA 25-100 g/cwt): progressively delayed anthesis
Final emergence [3, 20]: 96.2%
Median time to anthesis [3, 20]: 79.2 days
Median time to emergence [3, 20]: 11.9 days
Final emergence [3, 21]: 95.0%
Median time to anthesis [3, 21]: 80.1 days
Median time to emergence [3, 21]: 12.6 days
Final emergence [3, 22]: 94.3%
Median time to anthesis [3, 22]: 79.8 days
Median time to emergence [3, 22]: 14.1 days
Final emergence [3, 23]: 98.1%
Median time to anthesis [3, 23]: 81.8 days
Median time to emergence [3, 23]: 12.5 days
Final emergence [3, 24]: 98.1%
Median time to anthesis [3, 24]: 82.4 days
Median time to emergence [3, 24]: 14.1 days
Final emergence [3, 25]: 99.0%
Median time to anthesis [3, 25]: 81.3 days
Median time to emergence [3, 25]: 14.3 days
Final emergence [3, 26]: 98.5%
Median time to anthesis [3, 26]: 74.4 days
Median time to emergence [3, 26]: 8.8 days
Final emergence [3, 27]: 96.4%
Median time to anthesis [3, 27]: 75.1 days
Median time to emergence [3, 27]: 9.7 days
Final emergence [3, 28]: 94.4%
Median time to anthesis [3, 28]: 76.4 days
Median time to emergence [3, 28]: 11.5 days
Final emergence [3, 29]: 94.8%
Median time to anthesis [3, 29]: 79.8 days
Median time to emergence [3, 29]: 10.3 days
Final emergence [3, 30]: 95.0%
Median time to anthesis [3, 30]: 79.5 days
Median time to emergence [3, 30]: 11.3 days
Final emergence [3, 31]: 89.8%
Median time to anthesis [3, 31]: 80.8 days
Median time to emergence [3, 31]: 12.7 days
Final emergence [3, 32]: 99.0%
Median time to emergence [3, 32]: 11.4 days
Final emergence [3, 33]: 94.5%
Median time to emergence [3, 33]: 13.7 days
Final emergence [3, 34]: 92.0%
Median time to emergence [3, 34]: 14.3 days
Final emergence [3, 35]: 94.8%
Median time to emergence [3, 35]: 13.8 days
Final emergence [3, 36]: 96.8%
Median time to emergence [3, 36]: 15.3 days
Final emergence [3, 37]: 89.6%
Median time to emergence [3, 37]: 18.9 days
effect on final stand ([3]; any of the locations): did not significantly reduce final stand
effect on emergence from the soil ([3]; every location, ABA 25-100 g/cwt): progressive and significant delay in emergence
